Tests used:
[1] = test system: human HL60 leukemia cells; assay: In vitro cytotoxicity (LD50), HL60, tritiated thymidine incorporation; assay type: cell-based
Method: The potency and specificity of 225Ac-HuM195-DOTA was then evaluated in-vitro as a function of specific activity and activity concentration (FIG. 6). A suspension of HL60 cells were washed twice with complete media and then dispensed into a 96 well cell culture plate in complete media supplemented with 2% human serum. The volume was 100 μl and the cells were at a density of 5×10^5 cells/ml. Next a serial dilultion of purified ^225Ac-HuM195-DOTA was added to the wells. The diluent was complete media and volume added was 100 μl. The starting activity was 10 nCi/ml, which was diluted 5-fold for each subsequent tube. […] The cells were incubated for 2 days at 37° C., following which tritiated thymidine was added (0.5 pC, in 50 il complete media/well). The cells were incubated at 37° C. for an additional 5 h, then harvested using a Combi Cell Harvestor (Skatron Instruments). Cell viability was determined by analyzing the degree of tritiated thymidine incorporated into the DNA of the treated cells relative to control cells.
The potency and specificity of [225Ac]IgG for killing single cancer cells is determined using 5E4 cells in 0.2 mL per well in 96 well plates. Serial dilutions of [225Ac]IgG are added (triplicate) to the cells to yield final activity in the wells ranging from 74 kBl/mL to 37E-6 kB q/mL. Non-specific killing is measured after target cells are blocked with a 100-10000-fold excess of unlabeled IgG before plating and subsequent addition of [225Ac]IgG.

[2] = Toxicity of [225Ac]DOTA-HuM195 i.v. in cynamologous monkeys; assay type: in vivo, cynamologous monkey; conditions: 9 months out
Method: Two male cynamologous monkeys (3-5 kg) were injected i.v. 9 months ago with an initial 0.002-0.005 mCi dose of [225Ac]DOTA-HuM195 per monkey and then 6 weeks later with a 0.017-0.020 mCi dose of [225Ac]DOTA-HuM195. Animals are followed by serial blood sampling and observation of activity and appearance as a function of time.

## 225Ac-HuM195-DOTA
[1]; HL60 (non-specific), excess unlabeled antibody, S.A. 0.089 GBq/g
  LD50: 185.0 Bq/mL
[1]; HL60 (specific), S.A. 8.9 GBq/g
  LD50: 0.3 Bq/mL
[1]; HL60, Ac-225 construct, S.A. 0.24 Ci/g
  LD50: 8 pCi/mL
[1]; HL60, specific activity 0.094 nCi/ng, 2 days at 37° C. then tritiated thymidine 5 h
  LD50: about 1.3 nCi/ml
[2]; i.v. 0.002-0.005 mCi then 0.017-0.020 mCi 6 weeks later
  evidence of toxicity: no evidence of toxicity
[2]; i.v.
  hepatic, renal and hematopoietic function: did not change

— patent US6683162B2, “Targeted alpha particle therapy using actinium-255 conjugates” (Sloan Kettering Institute of Cancer Research, priority 2000, dated 2004)
